A short description of data set [1]: Moisture sorption at 25° C. (dynamic vapor sorption, DVS). In kind it is physicochemical. Conditions: for Moisture picked up (mass change): range 0 to 95% RH at 25° C. As to the method:
Moisture sorption isotherm was collected on a multi sample instrument SPS-100n (Projekt Messtechnik, Ulm, Germany) operated in stepping mode at 25° C. The sample was allowed to equilibrate at 40% RH before starting a pre-defined humidity program 40-0-95-0-95-40% RH, steps of 5% RH and with a maximal equilibration time of 24 hours per step were applied. About 20 to 30 mg of each sample was used. The hygroscopic classification as disclosed herein is done according to the European Pharmacopeia Technical Guide (1999, page 86), that is, a material is classified as “not hygroscopic or “non-hygroscopic” when the increase in mass, as measured by the DVS method disclosed herein, is less than 0.2%; a material is classified as slightly hygroscopic, when the increase in mass is less than 2% and equal to or greater than 0.2% mass/mass; finally, a material is classified as hygroscopic, when the increase in mass is less than 15% and equal to or greater than 2% mass/mass. The mass change between 40% relative humidity and 80% relative humidity in the first adsorption scan was considered. Data shown are from the first upwards cycle.

Data set [2] can be described thus: Bulk density and tapped density (Densi-tap tapping device). In kind it is physicochemical. Particulars: for Tapped density: after 3750 tappings; for Hausner ratio (HR) (ratio between tapped and bulk density): calculated from measured tapped and bulk densities; for Type of powder flow (flowability class from HR): classified from Hausner ratio; for Bulk density: powder without any processing, 10 mL glass cylinder. As to the method:
Bulk and tapped density were measured on a Densi-tap tapping device from Matec using a 10 mL glass cylinder and using powder without any processing. For tapped density the value is reported after 3750 tappings.

Where [3] appears, read: listed as crystalline form 1 of ACT-539313.

Here are results for 2 compounds from patent US20240116913A1, “A CRYSTALLINE FORM OF (4-METHYL-2-[1,2,3]TRIAZOL-2-YL-PHENYL)-[(R)-3-(3-[1,2,3]TRIAZOL-2-YL-BENZYL)-MORPHOLIN-4-YL]-METHANONE” (Idorsia Pharmaceuticals Ltd, priority 2021, published 2024).

The structures appear in SMILES notation.

In the case of `Cc1ccc(C(=O)N2CCOC[C@H]2Cc2cccc(-n3nccn3)c2)c(-n2nccn2)c1` [ACT-539313 in amorphous state, (4-Methyl-2-[1,2,3]triazol-2-yl-phenyl)-[(R)-3-(3-[1,2,3]triazol-2-yl-benzyl)-morpholin-4-yl]-methanone], the “Hygroscopic classification according to Ph. Eur.” value in data set [1] (DVS at 25° C., mass change between 40% and 80% RH, first adsorption scan) is “slightly hygroscopic according to (classified as slightly hygroscopic, when the increase in mass is less than 2% and equal to or greater than 0.2% mass/mass)”. Moreover, the “Moisture picked up (mass change)” value in data set [1] is reported as ~2.6% of moisture in the range 0. In data set [2] (listed as amorphous ACT-539313), this compound gave a Tapped density of 0.13 g/mL and a Bulk density of 0.06 g/mL. Further, in data set [2] (listed as amorphous material), the “Hausner ratio (HR) (ratio between tapped and bulk density)” value was 2.26; the “Type of powder flow (flowability class from HR)” value is “very, very poor (“very, very poor” (HR>1.60))”.

Turning to `Cc1ccc(C(=O)N2CCOC[C@H]2Cc2cccc(-n3nccn3)c2)c(-n2nccn2)c1` [ACT-539313 in crystalline form 1, (4-Methyl-2-[1,2,3]triazol-2-yl-phenyl)-[(R)-3-(3-[1,2,3]triazol-2-yl-benzyl)-morpholin-4-yl]-methanone], the “Hygroscopicity compared between solid forms” value in data set [1] (cf. FIGS. 4 and 5, Tables 1 and 3) is given as “less hygroscopic than the amorphous ACT-539313”. For the same compound, the “Moisture picked up (mass change)” value in data set [1] is given as “Material picks up about 0.1%”. In data set [2], this compound yielded a Tapped density of 0.46 g/mL and a Bulk density of 0.31 g/mL. Besides, in data set [2] (setting [3]), the “Hausner ratio (HR) (ratio between tapped and bulk density)” value is 1.47; the “Type of powder flow (flowability class from HR)” value is “very poor (“very poor” (HR from 1.46 to 1.59))”.
